Reference: patent US12187663B2, “Thyromimetics with a biphenylmethane scaffold and their use” (INTERNATIONAL SOCIETY FOR DRUG DEVELOPMENT S.R.L., priority 2019, dated 2025)

Assays:
TR-beta = target: T1, TR-beta (Homo sapiens, UniProt P10828); assay: LanthaScreen TR-FRET nuclear receptor coregulator assay, TR-beta; format: biochemical; details: coregulator peptide recruitment
T1 construct: In this assay Nuclear Receptor-LBD is added to ligand test compounds; purchased Invitrogen Corporation, Life Technologies
T1 sequence (P10828 217-461 limits assumed): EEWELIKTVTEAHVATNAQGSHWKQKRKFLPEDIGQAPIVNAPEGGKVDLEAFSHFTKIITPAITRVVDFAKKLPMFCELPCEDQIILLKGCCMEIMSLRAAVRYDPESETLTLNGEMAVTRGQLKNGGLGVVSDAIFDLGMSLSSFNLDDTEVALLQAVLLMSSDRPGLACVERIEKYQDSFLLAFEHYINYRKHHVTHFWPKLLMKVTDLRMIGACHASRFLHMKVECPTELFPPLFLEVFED
Description: The compounds of Formula (I,II) were tested in the biological test named LANTHASCREEN TR-FRET NUCLEAR RECEPTOR COREGULATOR ASSAY (Invitrogen Corporation, Life Technologies).
In this assay Nuclear Receptor-LBD is added to ligand test compounds followed by addition of a mixture of the fluorescein-coregulator peptide and terbium anti-GST antibody.

[1] = Liver/body weight ratio in rats; format: in vivo, F344 male rats; details: 3 days daily; IS25 or TG68 50, 75, 100 μg/100 g b.w. i.g. or 75 μg/100 g i.p.; T3 20 μg/100 g b.w.
Description: (§1) Five-week-old male F-344 rats purchased from Charles River (Milano, Italy) were maintained on a standard laboratory diet (Ditta Mucedola, Milano, Italy). The animals were given food and water ad libitum with a 12-h light/dark daily cycle and were acclimated for 1 week before the start of the experiment. All procedures were performed in accordance with the Guidelines for the Care and Use of Laboratory Animals and were approved by the Italian Ministry of Health. […] A control group received the vehicle (DMSO 5% in corn oil). Additional two groups received daily injections of either IS25 or TG68 at the dose of 75 μg/100 g b.wt. intraperitoneally for 3 days. For the measurement of hepatocyte proliferation, animals received bromodeoxyuridine (BrdU; 1 g/1 L) in drinking water during the 3-day treatment period (FIGS. 7A and B).
A control group received the vehicle (DMSO 5% in corn oil). Additional two groups received daily injections of either IS25 or TG68 at the dose of 75 μg/100 g b.w. intraperitoneally for 3 days.

Solubility in water = format: physicochemical
[2] = Serum levels of cholesterol, glucose, transaminases, amylase, lipase, bilirubin and triglycerides; format: in vivo, F-344 rats; details: rats, 3 days treatment
Description: as §1
Lack of severe liver toxicity was confirmed by measuring the levels of serum transaminases and bilirubin (FIG. 8) that were within the range of normal values for F-344 rats of the same age (Charles River datasheet). Pancreas damage was also evaluated by measuring the levels of amylase and lipase.

pancreatic acinar cells = assay: Pancreatic acinar cell proliferation (BrdU labeling index); format: in vivo, rats; details: one week; T3 4 mg/kg diet; GC1 50 μg/kg gavage once daily; TG68 and IS25 50 μg/kg in drinking water
Description: FIG. 9. […] BrdU (1 mg/ml) in drinking water was given all throughout the experimental time. […] LI was expressed as number of BrdU-positive acinar cell nuclei/100 nuclei. At least 2000 acinar cells per pancreas were scored. Results are expressed as means±SE of 3 to 5 rats per group. (one way ANOVA). ***Statistically significant from control; P<0.001.
BrdU (1 mg/ml) in drinking water was given all throughout the experimental time. […] LI was expressed as number of BrdU-positive acinar cell nuclei/100 nuclei. At least 2000 acinar cells per pancreas were scored.

[3] = Serum levels of cholesterol, glucose, transaminases, amylase, lipase, bilirubin and triglycerides; format: in vivo, F-344 rats; details: rats, intragastric administration, 3 days

In the case of `Cc1cc(OCC(=O)O)cc(C)c1Cc1ccc(N)c(C(C)C)c1` [IS25, 2-(4-(4-amino-3-isopropylbenzyl)-3,5-dimethylphenoxy)acetic acid], the EC50 (TR-beta) is reported as 458 nM, the liver/body weight ratio [1] is reported as “no such effect was observed” and the solubility in water (Solubility in water) is reported as “very soluble in water”. The “serum amylase (pancreas damage)” value [2] was “No significant changes”, the serum cholesterol [2] was “no change” and the serum glucose [2] was “no change”. The “serum lipase (pancreas damage)” value [2] was “No significant changes”, the “pancreatic acinar cell proliferation (BrdU-positive acinar cells)” value (pancreatic acinar cells) was “mitogenic only for the liver and not for other tissues” and the “serum TGs level” value [3] was “significantly reduced”.

In the case of `CC(=O)Nc1ccc(Cc2c(C)cc(OCC(=O)O)cc2C)cc1C(C)C` [TG68, 2-(4-(4-acetamido-3-isopropylbenzyl)-3,5-dimethylphenoxy)acetic acid], the EC50 (TR-beta) is reported as greater than 1000 nM, the liver/body weight ratio [1] is reported as “no such effect was observed” and the solubility in water (Solubility in water) is reported as “very soluble in water”. For the same molecule, the “serum amylase (pancreas damage)” value [2] was “No significant changes”, the serum cholesterol [2] was “no change” and the serum glucose [2] was “no change”. The “serum lipase (pancreas damage)” value [2] was “No significant changes”, the “pancreatic acinar cell proliferation (BrdU-positive acinar cells)” value (pancreatic acinar cells) was “mitogenic only for the liver and not for other tissues” and the “serum TGs level” value [3] was “significantly reduced”.
